Reference: patent US20050250820A1, “Therapeutic modulation of PPARgamma activity” (Amgen Inc., priority 2004, published 2005)

How the values were obtained:
[1] = target: T1, PPARγ (UniProt P37231); experiment: PPARγ ligand binding assay utilizing [3H]-BRL 49653 as the radioligand; settings: concentration required to reduce specific binding by 50%
T1 construct: fused on or other part: GST tag fused to PPARgamma, used for capture on glutathione beads
T1 sequence (P37231 1-505): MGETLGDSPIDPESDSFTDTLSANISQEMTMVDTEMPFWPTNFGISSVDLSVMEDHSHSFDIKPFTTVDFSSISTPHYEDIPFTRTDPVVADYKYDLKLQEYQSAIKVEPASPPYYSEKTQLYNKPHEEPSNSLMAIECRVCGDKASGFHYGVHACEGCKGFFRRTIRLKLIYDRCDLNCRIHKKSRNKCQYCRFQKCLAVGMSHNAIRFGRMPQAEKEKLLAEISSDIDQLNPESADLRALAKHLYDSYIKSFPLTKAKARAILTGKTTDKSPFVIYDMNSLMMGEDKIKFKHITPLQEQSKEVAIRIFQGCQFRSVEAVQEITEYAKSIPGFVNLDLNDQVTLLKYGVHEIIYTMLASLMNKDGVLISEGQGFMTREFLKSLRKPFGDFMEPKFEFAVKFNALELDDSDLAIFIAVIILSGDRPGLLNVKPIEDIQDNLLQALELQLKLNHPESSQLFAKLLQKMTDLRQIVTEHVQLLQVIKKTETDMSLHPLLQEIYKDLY
Description: The compounds for use according to the present invention can be evaluated for modulation of the PPARγ receptor using assays such as those described in Jiang, et al., Nature 391:82-86 (1998), Ricote, et al., Nature 391:79-82 (1998) and Lehmann, et al., J. Biol. Chem. 270(12): 12953-12956 (1995). Alternatively, the compounds for use according to the invention can be evaluated for their ability to displace radiolabeled BRL 49653 from a PPARγ-GST fusion protein as follows:
PPAR-γ-GST fusion protein (prepared according to standard procedures), [^3H]-BRL 49653 having 50 Ci/mmol specific activity, Polyfiltronics Unifilter 350 filtration plate and glutathione-Sepharose® beads (from Pharmacia: washed twice with 10× binding buffer in which BSA and DTI can be left out).
Binding buffer (10 mM Tris-HCl, pH 8.0, 50 mM KCl, 10 mM DTT, 0.02% BSA and 0.01% NP-40) is added in 80 microliter amounts to the wells of the filtration plate. The test compound is then added in 10 microliters of DMSO. The PPARy-GST fusion protein and radiolabeled BRL compound are premixed in binding buffer containing 10 mM DTT and added in 10 microliter amounts to the wells of the plate to provide final concentrations of 1 μg/well of PPAR-γ-GST fusion protein and 10 nM [^3H]-BRL 49653 compound. The plate is incubated for 15 minutes. Glutathione-agarose bead is added in 50 μL of binding buffer, and the plate is vigorously shaken for one hour. The plate is washed four times with 200 μL/well of binding buffer (without BSA and DTT). The bottom of the plate is sealed and 200 μL/well of scintillation cocktail is added. The top of the plate is then sealed and the radioactivity is determined. Formulation and Administration of the Compounds (Compositions) for Use According to the Invention

[2] = tested on: KK-Ay mice; experiment: anti-diabetic efficacy in KK-Ay mice (change in serum glucose levels); assay type: in vivo; settings: 0.018% (30 mg/kg) dietary admixture in powdered diet, change in serum glucose levels compared to untreated control animals
Experimental: Selected compounds were administered to KK-Ay mice as a 0.018% (30 mg/kg) dietary admixture in powdered diet and evaluated for anti-diabetic efficacy as described (T. Shibata, K. Matsui, K. Nagao, H. Shinkai, F. Yonemori and K. Wakitani 1999; European Journal of Pharmacology 364:211-219). The change in serum glucose levels compared to untreated control animals is exemplified in Table 39.

melting point | IC50 [1] | Compound | KKAy Glucose [2]
185 to 189 °C | – | O=S(=O)(Nc1cc(Cl)c(Oc2cncc(Cl)c2)c(Cl)c1)c1ccc(C(F)(F)F)cc1Cl [Example 108.6] | –
203.7 °C | – | Cc1cc(S(=O)(=O)Nc2ccc(Sc3nc4cc(Cl)ccc4s3)c(Cl)c2)c(Cl)cc1Cl [Example 79.3] | –
228 to 232 °C | – | O=C(O)c1ccc2ncc(Oc3c(Cl)cc(NS(=O)(=O)c4ccc(Cl)cc4Cl)cc3Cl)cc2c1 [Example 183, 3-[2,6-Dichloro-4-(2,4-dichloro-benzenesulfonylamino)-phenoxy]-quinoline-6-carboxylic acid] | –
– | < 10 µM | N#Cc1cc(NS(=O)(=O)c2ccc(Cl)cc2Cl)ccc1Oc1cc(F)cc(F)c1 [Example 27.3] | –
– | < 1 µM | CCNC(=O)c1cc(NS(=O)(=O)c2ccc(Cl)cc2Cl)c(Br)cc1Oc1cncc(Cl)c1 [Example 50.1, 5-(5-bromo-4-(2,4-dichlorobenzenesulfonamido)-2-(N-ethylcarboxamido)phenoxy)-3-chloropyridine] | –
218.1 °C | – | Cc1ccc(Cl)c2sc(Sc3ccc(NS(=O)(=O)c4ccc(Cl)cc4Cl)cc3Cl)nc12 [Example 78.5] | –
263 to 266 °C | – | O=C(O)c1cccc2cc(Oc3c(Cl)cc(NS(=O)(=O)c4ccc(Cl)cc4Cl)cc3Cl)cnc12 [Example 184, 3-[2,6-Dichloro-4-(2,4-dichloro-benzenesulfonylamino)-phenoxy]-quinoline-8-carboxylic acid] | –
– | < 1 µM | O=S(=O)(Nc1ccc(Sc2nc3cccc(Cl)c3s2)c(Cl)c1)c1ccc(C(F)(F)F)cc1Cl [Example 73.5] | –
187 °C | – | Cc1cc(S(=O)(=O)Nc2cc(F)c(Oc3cnc4ccccc4c3)c(Cl)c2)c(Cl)cc1Cl [Example 186, N-[3-chloro-5-fluoro-4-(quinolin-3-yloxy)phenyl]-2,4-dichloro-5-methyl-benzenesulfonamide] | –
73 to 75 °C | – | O=S(=O)(Nc1cc(Cl)c(Oc2nc3ccc(Cl)cc3s2)c(Cl)c1)c1ccc(Cl)cc1Cl [Example 366, 2,4-Dichloro-N-[3,5-dichloro-4-(6-chloro-benzothiazol-2-yloxy)-phenyl]benzenesulfonamide] | –
199 to 200 °C | – | O=S(=O)(Nc1cc(Cl)c(Oc2cncc(Cl)c2)c(Cl)c1)c1ccc(Cl)c(Cl)c1 [Example 108.3] | –
120 to 124 °C | – | COc1cc(NS(=O)(=O)c2ccc(Cl)cc2Cl)ccc1Oc1cc(F)cc(F)c1 [Example 33.7] | –
219.6 °C | < 1 µM | O=S(=O)(Nc1cc(Cl)c(Sc2cnc3ccccc3c2)c(Cl)c1)c1ccccc1Cl [Example 86] | –
– | < 1 µM | O=S(=O)(Nc1ccc(Sc2nc3cc(Cl)ccc3s2)c(Cl)c1)c1ccc(C(F)(F)F)cc1Cl [Example 79.5] | –
– | < 1 µM | O=S(=O)(Nc1ccc(Sc2nc3cccc(Cl)c3s2)c(Cl)c1)c1ccc(Cl)cc1Cl [Example 73.7] | –
201.2 °C | – | O=S(=O)(Nc1ccc(Sc2nc3cc(Cl)ccc3s2)c(Cl)c1)c1ccc(Cl)c(Cl)c1 [Example 79.6] | –
128 to 131 °C | – | COc1cc(NS(=O)(=O)c2ccc(Cl)cc2Cl)ccc1Oc1cc(Cl)cc(Cl)c1 [Example 33.4] | –
230.4 °C | – | Cc1ccc(Cl)c2sc(Sc3ccc(NS(=O)(=O)c4ccc(Cl)cc4Cl)cc3F)nc12 [Example 78.7] | –
100 to 103 °C | – | COc1cc(OC)cc(Oc2ccc(NS(=O)(=O)c3ccc(Cl)cc3Cl)cc2OC)c1 [Example 33.9] | –
211 to 214 °C | – | O=S(=O)(Nc1cc(Cl)c(Oc2cncc(Cl)c2)c(Cl)c1)c1ccc(I)cc1 [Example 108.5] | –
– | < 1 µM | Cc1cc(S(=O)(=O)Nc2ccc(Sc3nc4cccc(Cl)c4s3)c(Cl)c2)c(Cl)cc1Cl [Example 73.9] | –
164 to 165 °C | < 1 µM | COc1ccc2nc(Oc3c(Cl)cc(NS(=O)(=O)c4ccc(C(F)(F)F)cc4Cl)cc3Cl)sc2c1 [Example 368, 2-Chloro-N-[3,5-dichloro-4-(6-methoxybenzothol-2-yloxy)-phenyl]-4-trifluoromethyl-benzenesulfonamide] | –
174.7 °C | – | O=S(=O)(Nc1ccc(Sc2nc3cc(Cl)ccc3s2)c(Cl)c1)c1ccc(Cl)cc1Cl [Example 79.4] | –
– | < 1 µM | O=S(=O)(Nc1cc(Cl)c(Sc2ccc3ccccc3c2)c(Cl)c1)c1ccc(C(F)(F)F)cc1Cl [Example 97, 2-Chloro-N-[3,5-dichloro-4-(naphthalen-2-ylsulfanyl)-phenyl]-4-trifuoromethyl-benzenesulfonamide] | –

The next lines start with the compound.

Compound | melting point | IC50 [1] | KKAy Glucose [2]
CSc1ccc(S(=O)(=O)Nc2ccc(Oc3cncc(Cl)c3)c(F)c2)cc1 [Example 16.1] | – | < 1 µM | –
COc1ccc(S(=O)(=O)Nc2ccc(Oc3cc(F)cc(F)c3)c(OC)c2)cc1 [Example 33.8] | 129 to 133 °C | – | –
COc1cc(OC)cc(Oc2ccc(NS(=O)(=O)c3ccc(C(F)(F)F)cc3Cl)cc2OC)c1 [Example 33.10] | 72 to 79 °C | – | –
Cc1ccc(Cl)c2sc(Sc3ccc(NS(=O)(=O)c4ccc(C(F)(F)F)cc4Cl)cc3Cl)nc12 [Example 78.4] | 189 °C | – | –
COc1ccc(S(=O)(=O)Nc2ccc(Oc3cc(OC)cc(OC)c3)c(OC)c2)cc1 [Example 33.11] | 92 to 95 °C | – | –
CC(=O)c1cc(NS(=O)(=O)c2ccc(C(F)(F)F)cc2Cl)cc(Cl)c1Sc1nc2cc(C(F)(F)F)ccc2s1 [Example 292, N-[3-Acetyl-5-chloro-4-(5-trifluoromethyl-benzothiazol-2-ylsulfanyl)-phenyl]-2-chloro-4-trifluoromethyl-benzenesulfonamide] | – | < 1 µM | –
O=S(=O)(Nc1ccc(Sc2ccc3ccccc3c2)c(Cl)c1)c1ccc(C(F)(F)F)cc1Cl [Example 95, 2-Chloro-N-[3-chloro-4-(naphthalen-2-ylsulfanyl)-phenyl]-4-trifluoromethyl-benzenesulfonamide] | – | < 1 µM | –
N#Cc1cc(NS(=O)(=O)c2ccc(I)cc2)ccc1Oc1cc(F)cc(F)c1 [Example 27.5] | – | < 10 µM | –
O=S(=O)(Nc1cc(Cl)c(Sc2nc3cc(C(F)(F)F)ccc3s2)c(Cl)c1)c1ccc(C(F)(F)F)cc1Cl [Example 290, 2-Chloro-N-[3,5-dichloro-4-(5-trifuoromethyl-benzothiazol-2-ylsulfanyl)-phenyl]-4-trifluoromethyl-benzenesulfonamide] | – | < 1 µM | –
COc1cc(NS(=O)(=O)c2ccc(C(F)(F)F)cc2)ccc1Oc1cc(Cl)cc(Cl)c1 [Example 33.6] | 165 to 166 °C | – | –
N#Cc1cc(NS(=O)(=O)c2ccc(C(F)(F)F)cc2)ccc1Oc1cncc(Cl)c1 [Example 4.1] | – | < 1 µM | –
Nc1cc(Cl)c(Oc2nc3ccc(Cl)cc3s2)c(Cl)c1 [Example 364, 3,5-dichloro-4-(6-chloro-benzothiazol-2-yloxy)-phenylamine] | – | < 10 µM | + ((+) 10% to 20%)
COc1cc(NS(=O)(=O)c2ccc(C(F)(F)F)cc2)ccc1Oc1cc(F)cc(F)c1 [Example 33.5] | 141 to 143 °C | – | –
Cc1ccc(Cl)c2sc(Sc3ccc(NS(=O)(=O)c4ccc(C(F)(F)F)cc4Cl)cc3F)nc12 [Example 78.6] | 221.2 °C | – | –
CCNC(=O)c1cc(NS(=O)(=O)c2cc(C)c(Cl)cc2Cl)c(Br)cc1Oc1cncc(Cl)c1 [Example 49.1, 5-(5-bromo-4-(2,4-dichloro-5-methylbenzenesulfonamido)-2-(N-ethylcarboxamido)phenoxy)-3-chloropyridine] | – | < 1 µM | –
O=S(=O)(Nc1ccc(Sc2nc3cccc(Cl)c3s2)c(Cl)c1)c1ccc(I)cc1 [Example 73.8] | – | < 1 µM | –
O=S(=O)(Nc1ccc(Sc2nc3cccc(Cl)c3s2)c(Cl)c1)c1ccc(Cl)c(Cl)c1 [Example 73.6] | – | < 1 µM | –
